In patent publication US8633209B2, “Hydrobromide salts of a pyrazolylaminoquinazoline” (Ambit Biosciences Corporation, priority 2010, dated 2014):
Entries after “also recorded” stand apart in the source; their conditions may differ. Where two headings read alike, the source gives them in different places.

What was measured:
Type in all cases: physicochemical
[1] = Heat and vapor stress (vacuum drying, RH jar) with XRPD analysis of the resulting solid form; conditions: for Result of vacuum drying (Additional Information): temperature and time not stated in Table V; for XRPD Results after vapor stress: ~94% RH vapor stress at RT for ~3 days
Description: X-ray powder diffraction analyses were performed using an Inel XRG-3000 diffractometer equipped with a CPS (Curved Position Sensitive) detector with a 2θ range of 120°. Real time data were collected using CuKα radiation at a resolution of 0.03° 2θ. The tube voltage and amperage were set to 40 kV and 30 mA, respectively. The monochromator slit was set at 5 mm by 160 μm. […] Samples were prepared into thin-walled glass capillaries for analysis. Each capillary was mounted onto a goniometer head that was motorized to permit spinning of the capillary during data acquisition. The samples were analyzed for 300 seconds. Instrument calibration was performed using a silicon reference standard.
Samples were placed in a RH jar of specified relative humidity at ambient temperature or elevated temperature for a given amount of time. Samples were placed in heating/vacuum oven at specified temperature for thermal stressing.

[2] = Solubility of the HBr salt of Form A in selected solvents, estimated by solvent addition under ambient conditions
Description: The solubility of the HBr salt of Form A in selected solvents was estimated by solvent addition under ambient conditions to provide preliminary information for the polymorph screen. […] This material is sparingly soluble in methanol, methanol/chloroform (1:1), and methanol/tetrahydrofuran (˜14-20 mg/mL).

[3] = Moisture sorption/desorption (VTI SGA-100 Vapor Sorption Analyzer, 5% to 95% RH); conditions: for Hygroscopicity (moisture sorption data are consistent with): 5% to 95% RH; for Weight gain upon increase in relative humidity: from ~5% to ~95% RH; for Weight loss upon decrease in relative humidity: from ~95% to ~5% RH
Description: Moisture soption/desorption data were collected on a VTI SGA-100 Vapor Sorption Analyzer. Sorption and desorption data were collected over a range of 5% to 95% relative humidity (RH) at 10% RH intervals under a nitrogen purge. Samples were not dried prior to analysis. Equilibrium criteria used for analysis were less than 0.0100% weight change in 5 min, with a maximum equilibration time of 3 hrs if the weight criterion was not met. Data were not corrected for the initial moisture content of the samples. NaCl and PVP were used as calibration standards.

Structure (SMILES): Cc1cc(Nc2nc(C(O)c3ccc(F)cc3)nc3ccccc23)n[nH]1 (centres unmarked) [Forms A + B, (4-fluorophenyl)(4-(5-methyl-1H-pyrazol-3-ylamino)quinazolin-2-yl)methanol]
- XRPD Results after vacuum drying ([1]; vacuum at ~60° C. for ~1 day): Form A +
- XRPD Results after vacuum drying ([1]; vacuum at ~60° C. for ~2 days, listed as Forms A and B): primarily consistent with Form A with a minor amount of Form B

Structure (SMILES): Cc1cc(Nc2nc(C(O)c3ccc(F)cc3)nc3ccccc23)n[nH]1 (centres unmarked) [Form A, (4-fluorophenyl)(4-(5-methyl-1H-pyrazol-3-ylamino)quinazolin-2-yl)methanol]
- solubility ([2]; DMF/water (1:1), aqueous with cosolvent or surfactant or cyclodextrin, thermodynamic from solid, solvent DMF/water (1:1), read-out: Solubility): 30000 µg/mL
- solubility ([2]; DMF/water (1:2), aqueous with cosolvent or surfactant or cyclodextrin, thermodynamic from solid, solvent DMF/water (1:2), read-out: Solubility): 4000 µg/mL
- solubility ([2]; DMF/water (1:4), aqueous with cosolvent or surfactant or cyclodextrin, thermodynamic from solid, solvent DMF/water (1:4), read-out: Solubility): < 2000 µg/mL
- solubility ([2]; DMF/water (1:9), aqueous with cosolvent or surfactant or cyclodextrin, thermodynamic from solid, solvent DMF/water (1:9), read-out: Solubility): < 2000 µg/mL
- solubility ([2]; MeOH/THF (1:1), organic solvent or mixture, thermodynamic from solid, solvent MeOH/THF (1:1), read-out: Solubility): 14000 to 20000 µg/mL
- solubility ([2]; MeOH/chloroform (1:1), organic solvent or mixture, thermodynamic from solid, solvent MeOH/chloroform (1:1), read-out: Solubility): 14000 to 20000 µg/mL
- solubility ([2]; acetone, organic solvent or mixture, thermodynamic from solid, solvent Acetone, read-out: Solubility): < 2000 µg/mL
- solubility ([2]; acetonitrile, organic solvent or mixture, thermodynamic from solid, solvent ACN, read-out: Solubility): < 2000 µg/mL
- solubility ([2]; chloroform, organic solvent or mixture, thermodynamic from solid, solvent Chloroform, read-out: Solubility): < 2000 µg/mL
- solubility ([2]; dichloromethane, organic solvent or mixture, thermodynamic from solid, solvent DCM, read-out: Solubility): < 2000 µg/mL
- solubility ([2]; dimethylformamide, organic solvent or mixture, thermodynamic from solid, solvent DMF, read-out: Solubility): > 114000 µg/mL
- solubility ([2]; ethanol, organic solvent or mixture, thermodynamic from solid, solvent EtOH, read-out: Solubility): 3000 to 7000 µg/mL
- solubility ([2]; ethyl acetate, organic solvent or mixture, thermodynamic from solid, solvent EtOAc, read-out: Solubility): < 2000 µg/mL
- solubility ([2]; hexafluoroisopropanol, organic solvent or mixture, thermodynamic from solid, solvent HFIPA (hexafluoroisopropanol), read-out: Solubility): > 128000 µg/mL
- solubility ([2]; isopropyl alcohol, organic solvent or mixture, thermodynamic from solid, solvent IPA, read-out: Solubility): < 2000 µg/mL
- solubility ([2]; methanol, organic solvent or mixture, thermodynamic from solid, solvent MeOH, read-out: Solubility): 14000 to 20000 µg/mL
- solubility ([2]; nitromethane, organic solvent or mixture, thermodynamic from solid, solvent Nitromethane, read-out: Solubility): < 2000 µg/mL
- solubility ([2]; solvent ACN): <2000 µg/mL
- solubility ([2]; solvent Acetone): <2000 µg/mL
- solubility ([2]; solvent Chloroform): <2000 µg/mL
- solubility ([2]; solvent DCM): <2000 µg/mL
- solubility ([2]; solvent DMF): >114000 µg/mL
- solubility ([2]; solvent DMF/water (1:4)): <2000 µg/mL
- solubility ([2]; solvent DMF/water (1:9)): <2000 µg/mL
- solubility ([2]; solvent EtOAc): <2000 µg/mL
- solubility ([2]; solvent EtOH): 3000 µg/mL
- solubility ([2]; solvent HFIPA (hexafluoroisopropanol)): >128000 µg/mL
- solubility ([2]; solvent IPA): <2000 µg/mL
- solubility ([2]; solvent MeOH): 18000 µg/mL
- solubility ([2]; solvent MeOH/THF (1:1)): 14000 µg/mL
- solubility ([2]; solvent MeOH/chloroform (1:1)): 16000 µg/mL
- solubility ([2]; solvent Nitromethane): <2000 µg/mL
- solubility ([2]; solvent THF): <2000 µg/mL
- solubility ([2]; solvent Toluene): <2000 µg/mL
- solubility ([2]; solvent Water): <2000 µg/mL
- solubility ([2]; t-butanol/water (3:1), organic solvent or mixture, thermodynamic from solid, solvent t-Butanol/water (3:1), read-out: Solubility): 6000 µg/mL
- solubility ([2]; tetrahydrofuran, organic solvent or mixture, thermodynamic from solid, solvent THF, read-out: Solubility): < 2000 µg/mL
- solubility ([2]; toluene, organic solvent or mixture, thermodynamic from solid, solvent Toluene, read-out: Solubility): < 2000 µg/mL
- solubility ([2]; water, thermodynamic from solid, solvent Water, read-out: Solubility): < 2000 µg/mL
- Hygroscopicity (moisture sorption data are consistent with) [3]: limited hygroscopic material
- Weight loss upon equilibration at ~5% RH [3]: ~0.3 wt %
- Weight gain upon increase in relative humidity [3]: 1.0 wt %
- Weight loss upon decrease in relative humidity [3]: ~1.0 wt %

Structure (SMILES): Cc1cc(Nc2nc(C(O)c3ccc(F)cc3)nc3ccccc23)n[nH]1 (centres unmarked) [Form B, (4-fluorophenyl)(4-(5-methyl-1H-pyrazol-3-ylamino)quinazolin-2-yl)methanol]
- Result of vacuum drying (Additional Information) [1]: primarily consistent with Form A
- XRPD Results after vacuum drying ([1]; vacuum at ~60° C. for ~1 day): mixture of Form A with small amount of Form B

Structure (SMILES): Cc1cc(Nc2nc(C(O)c3ccc(F)cc3)nc3ccccc23)n[nH]1 (centres unmarked) [Disordered Form A, (4-fluorophenyl)(4-(5-methyl-1H-pyrazol-3-ylamino)quinazolin-2-yl)methanol]
- XRPD Results after vapor stress [1]: Disordered A
- XRPD Results after vapor stress ([1]; listed as disordered Form A): remained disordered

Structure (SMILES): Cc1cc(Nc2nc(C(O)c3ccc(F)cc3)nc3ccccc23)n[nH]1 (centres unmarked) [Form C, (4-fluorophenyl)(4-(5-methyl-1H-pyrazol-3-ylamino)quinazolin-2-yl)methanol]
- Result of vacuum drying (Additional Information) ([1]; listed as C): Forms A and C.
- XRPD Results after vacuum drying ([1]; vacuum at ~80° C. for ~1 day): mixture of Forms A and C

Structure (SMILES): Cc1cc(Nc2nc(C(O)c3ccc(F)cc3)nc3ccccc23)n[nH]1 (centres unmarked) [Form D, (4-fluorophenyl)(4-(5-methyl-1H-pyrazol-3-ylamino)quinazolin-2-yl)methanol]
- Result of vacuum drying (Additional Information) ([1]; listed as D): Form A.
- XRPD Results after vacuum drying ([1]; vacuum at ~40° C. for ~3 days): consistent with Form A

Structure (SMILES): Cc1cc(Nc2nc(C(O)c3ccc(F)cc3)nc3ccccc23)n[nH]1 (centres unmarked) [Form E, (4-fluorophenyl)(4-(5-methyl-1H-pyrazol-3-ylamino)quinazolin-2-yl)methanol]
- Hygroscopicity (moisture sorption data are consistent with) [3]: limited hygroscopic material
- Weight loss upon equilibration at ~5% RH [3]: ~0.2 wt %
- Weight gain upon increase in relative humidity [3]: 0.6 wt %
- Weight loss upon decrease in relative humidity [3]: ~0.6 wt %
- Result of vacuum drying (Additional Information) [1]: remained the same after vacuum
- XRPD Results after vacuum drying ([1]; vacuum at ~60° C. for ~2 days): No changes were observed in the XRPD pattern; also recorded: physically stable; also recorded: Form E
